ChEMBL document CHEMBL3627635, “Synthesis and anti-proliferative activity of novel azazerumbone conjugates with chalcones” (Bioorg Med Chem Lett, 2015)
In brackets after ≈: the same amount, converted by molar mass.

Key:
Type in all cases: functional, cell-based
HepG2 = test: Antiproliferative activity against human HepG2 cells
MCF7 = test: Antiproliferative activity against human MCF7 cells
P338 = test: Antiproliferative activity against mouse […] cells
[1] = Antiproliferative activity against human Lu cells
SW480 = test: Antiproliferative activity against human SW480 cells
HeLa = test: Antiproliferative activity against human HeLa cells

Compound | IC50 (HepG2) [µg/mL] | IC50 (MCF7) [µg/mL] | IC50 (SW480) [µg/mL] | IC50 (HeLa) [µg/mL] | IC50 (P338) [µg/mL] | IC50 [1] [µg/mL]
COc1ccc(/C=C/C(=O)c2ccc(OCCn3cc(CN4C(=O)/C=C/C(C)(C)C/C=C(\C)CC/C=C/4C)nn3)cc2O)cc1 | 2.06 (≈ 3.37 µM) | 2.85 (≈ 4.67 µM) | 3.24 (≈ 5.3 µM) | – | 1.21 (≈ 1.98 µM) | 1.67 (≈ 2.73 µM)
COc1cccc(/C=C/C(=O)c2ccc(OCCn3cc(CN4C(=O)/C=C/C(C)(C)C/C=C(\C)CC/C=C/4C)nn3)cc2O)c1 | 1.01 (≈ 1.65 µM) | 1.12 (≈ 1.83 µM) | 0.95 (≈ 1.56 µM) | – | 0.89 (≈ 1.46 µM) | 0.61 (≈ 0.999 µM)
COc1ccccc1/C=C/C(=O)c1ccc(OCCn2cc(CN3C(=O)/C=C/C(C)(C)C/C=C(\C)CC/C=C/3C)nn2)cc1O | 1.71 (≈ 2.8 µM) | 1.17 (≈ 1.92 µM) | 0.9 (≈ 1.47 µM) | – | 1.1 (≈ 1.8 µM) | 2.4 (≈ 3.93 µM)
COc1cc(/C=C/C(=O)c2ccc(OCCn3cc(CN4C(=O)/C=C/C(C)(C)C/C=C(\C)CC/C=C/4C)nn3)cc2O)cc(OC)c1OC | 1.44 (≈ 2.15 µM) | 2.78 (≈ 4.14 µM) | 2.61 (≈ 3.89 µM) | – | 0.89 (≈ 1.33 µM) | 1.28 (≈ 1.91 µM)
C/C1=C\CC(C)(C)/C=C/C(=O)N(Cc2cn(CCOc3ccc(C(=O)/C=C/c4ccc(C)cc4)c(O)c3)nn2)/C(C)=C/CC1 | 0.87 (≈ 1.46 µM) | 1.21 (≈ 2.03 µM) | 1.16 (≈ 1.95 µM) | – | 0.92 (≈ 1.55 µM) | 0.91 (≈ 1.53 µM)
COc1ccc(/C=C/C(=O)c2ccc(OCCn3cc(CN4C(=O)/C=C/C(C)(C)C/C=C(\C)CC/C=C/4C)nn3)cc2O)cc1OCCCN1CCOCC1 | 1.59 (≈ 2.11 µM) | 1.13 (≈ 1.5 µM) | 0.91 (≈ 1.21 µM) | – | 0.96 (≈ 1.27 µM) | 1.56 (≈ 2.07 µM)
C/C1=C\CC(C)(C)/C=C/C(=O)N(Cc2cn(CCOc3ccc(C(=O)/C=C/c4ccc(C(C)C)cc4)c(O)c3)nn2)/C(C)=C/CC1 | 0.84 (≈ 1.35 µM) | 0.93 (≈ 1.49 µM) | 0.85 (≈ 1.36 µM) | – | 1.39 (≈ 2.23 µM) | 0.77 (≈ 1.24 µM)
COc1ccc(/C=C/C(=O)c2ccc(OCCCN3C(=O)/C=C/C(C)(C)C/C=C(\C)CC/C=C/3C)cc2)cc1 | 1.73 (≈ 3.28 µM) | 3.17 (≈ 6.01 µM) | 2.92 (≈ 5.53 µM) | – | 1.3 (≈ 2.46 µM) | 2.56 (≈ 4.85 µM)
COc1cc(/C=C/C(=O)c2ccc(OCCCN3C(=O)/C=C/C(C)(C)C/C=C(\C)CC/C=C/3C)cc2)cc(OC)c1OC | 0.99 (≈ 1.68 µM) | 0.58 (≈ 0.987 µM) | 0.71 (≈ 1.21 µM) | – | 0.77 (≈ 1.31 µM) | 1.01 (≈ 1.72 µM)
COc1ccc(/C=C/C(=O)c2ccc(OCCCN3C(=O)/C=C/C(C)(C)C/C=C(\C)CC/C=C/3C)cc2)cc1OCCCN1CCOCC1 | 1.53 (≈ 2.28 µM) | 1.07 (≈ 1.59 µM) | 0.8 (≈ 1.19 µM) | – | 1.08 (≈ 1.61 µM) | 1.22 (≈ 1.82 µM)
Cc1c2ccncc2c(C)c2c1[nH]c1ccccc12 [ELLIPTECINE] | 0.36 (≈ 1.46 µM) | 0.44 (≈ 1.79 µM) | 0.38 (≈ 1.54 µM) | – | 0.44 (≈ 1.79 µM) | 0.63 (≈ 2.56 µM)

Now from value to molecule, other results behind:

IC50 (HepG2) [µg/mL] | IC50 (MCF7) [µg/mL] | IC50 (SW480) [µg/mL] | IC50 (HeLa) [µg/mL] | Compound | IC50 (P338) [µg/mL] | IC50 [1] [µg/mL]
1.38 (≈ 2.62 µM) | 1.37 (≈ 2.6 µM) | 1.34 (≈ 2.54 µM) | – | COc1cccc(/C=C/C(=O)c2ccc(OCCCN3C(=O)/C=C/C(C)(C)C/C=C(\C)CC/C=C/3C)cc2)c1 | 1.1 (≈ 2.08 µM) | 1.06 (≈ 2.01 µM)
1.44 (≈ 2.73 µM) | 1.56 (≈ 2.96 µM) | 1.33 (≈ 2.52 µM) | – | COc1ccccc1/C=C/C(=O)c1ccc(OCCCN2C(=O)/C=C/C(C)(C)C/C=C(\C)CC/C=C/2C)cc1 | 0.83 (≈ 1.57 µM) | 2.82 (≈ 5.34 µM)
1.53 (≈ 2.99 µM) | 1.21 (≈ 2.36 µM) | 1.57 (≈ 3.07 µM) | – | C/C1=C\CC(C)(C)/C=C/C(=O)N(CCCOc2ccc(C(=O)/C=C/c3ccc(C)cc3)cc2)/C(C)=C/CC1 | 1.29 (≈ 2.52 µM) | 1.18 (≈ 2.31 µM)
34.6 (≈ 148 µM) | 15.6 (≈ 67 µM) | 6.83 (≈ 29.3 µM) | – | C/C1=C\CC(C)(C)/C=C/C(=O)N/C(C)=C/CC1 | 6.25 (≈ 26.8 µM) | 17.8 (≈ 76.4 µM)
13.3 (≈ 61.1 µM) | 9.67 (≈ 44.3 µM) | 3.15 (≈ 14.4 µM) | 2.5 (≈ 11.5 µM) | C/C1=C\CC(C)(C)/C=C/C(=O)/C(C)=C/CC1 [ZERUMBONE] | 2.63 (≈ 12 µM) | 6.05 (≈ 27.7 µM)
